From patent publication US9988430B2, “Stable GLP-1 based GLP-1/glucagon receptor co-agonists” (Novo Nordisk A/S, priority 2014, dated 2018)
*1 amine or outer side, *2 acyl side, *3 side chain or, on linkers, in order; H or OH if unused. Where a SMILES comes first, the peptide text is derived from it. Bridges are numbered along the chain shown (N, C = ends). Roman numbers before positions name the chains, in order. Side-chain parts run from the residue outwards. [ ]: non-standard residue; d: D form. The star is where a group is joined. C20 diacid = O=C(O)CCCCCCCCCCCCCCCCCCC(=O)*; C18 diacid = O=C(O)CCCCCCCCCCCCCCCCC(=O)*; γGlu = O=C(O)[C@H](CCC(=O)[*:2])N[*:1]; Desaminohistidyl = O=C(CCc1c[nH]cn1)*; Ac4c = NC1(C(=O)O)CCC1; AEEA = NCCOCCOCC(=O)O; Aib = CC(C)(N)C(=O)O

What was measured:
human GLP-1 receptor [1] = molecular target: T1, human GLP-1 receptor (Homo sapiens, UniProt P43220); assay: Assay (I)(a): GLP-1 receptor potency, CRE luciferase reporter gene assay in BHK cells; type: cell-based; conditions: BHK cells expressing human GLP-1 receptor, read-out: EC50 GLP-1R
T1 construct: expressed in transfected cells; host or cells: membranes of BHK cells, parent line BHKTS13, clone FCW467-12A
Description: Assay (I): GLP-1 and Glucagon Receptor Potency The purpose of this example was to test the activity or potency, of the GLP-1 derivatives of the invention, in vitro. The in vitro potency is the measure of human GLP-1 receptor (GLP-1R) or glucagon receptor (glucagonR) activation, respectively, in a whole cell assay. In vitro potency was determined by measuring the cellular response of human GLP-1 or glucagon receptor activation, respectively, in a reporter gene assay. The assay was performed in a BHK cell line that stably expresses either the human GLP-1 receptor or the human glucagon receptor and comprises the DNA for the cAMP response element (CRE) coupled to a promoter and the gene for firefly luciferase (CRE luciferase). […] When assay incubation was completed, the luciferase substrate (luciferin) was added and the enzyme converted luciferin to oxyluciferin and produces bioluminescence. The luminescence was measured as the readout for the assay. (a) GLP-1 Receptor Activation The cells used in this assay (clone FCW467-12A/KZ10-1) were BHK cells with BHKTS13 as a parent cell line. The cells were derived from a clone (FCW467-12A) that expresses the human GLP-1 receptor and were established by further transfection with CRE luciferase to obtain the current clone. The cells were cultured at 5% CO2 in DMEM medium with 10% FBS, 1×GlutaMAX, 1 mg/ml G418, 240 nM MTX (methotrexate) and 1% pen/strep (penicillin/streptomycin). They were aliquoted and stored in liquid nitrogen. Before each assay, an aliquot was taken up and washed three times in PBS before being suspended at the desired concentration in assay medium. For 96-well plates the suspension was made to give a final concentration of 5×10EE3 cells/well. The following chemicals were used in the assay: Pluronic F-68 (10%) (Gibco 2404), Ovalbumin (Sigma A5503), DMEM w/o phenol red (Gibco 11880-028), 1 M Hepes (Gibco 15630), Glutamax 100× (Gibco 35050) and steadylite plus (PerkinElmer 6016757). Assay Medium consisted of DMEM w/o phenol red, 10 mM Hepes, 1×GlutaMAX, 2% Ovalbumin and 0.2% Pluronic F-68. Cell stocks were thawed in a 37° C. water bath. Cells were washed three times in PBS. The cells were counted and adjusted to 5×10EE3 cells/50 μl (1×10EE5 cells/ml) in Assay Medium. A 50 μl aliquot of cells was transferred to each well in the assay plate. Stocks of the test compounds and reference compounds were diluted to a concentration of […] in Assay Medium. Compounds were diluted 10-fold to give the following concentrations: 2×10EE-6 M, 2×10EE-7 M, 2×10EE-8 M; 2×10EE-9 M, 2×10EE-10 M, 2×10EE-11 M, 2×10EE-12 M and 2×10EE-13 M. For each compound a blank assay medium control was also included. A 50 μl aliquot of compound or blank was transferred from the dilution plate to the assay plate. Compounds were tested at the following final concentrations: 1×10EE-6 M, 1×10EE-7 M, 1×10EE-8 M; 1×10EE-9 M, 1×10EE-10 M, 1×10EE-11 M and 1×10EE-12 M and 1×10EE-13 M. The assay plate was incubated for 3 h in a 5% CO2 incubator at 37° C. The assay plate was removed from the incubator and allowed to stand at room temperature for 15 min. A 100 μl aliquot of steadylite plus reagent was added to each well of the assay plate (reagent is light sensitive). Each assay plate was covered with aluminum foil to protect it from light and shaken for 30 min at room temperature. Each assay plate was read in a Perkin Elmer TopCount NXT instrument. The data from the TopCount instrument was transferred to GraphPad Prism software. The software performed a non-linear regression (log(agonist) vs response-Variable slope (four parameter)). EC50 values were calculated by the software and reported in pM.

human GLP-1 receptor [2] = molecular target: T1, human GLP-1 receptor; assay: Assay (II)(a): GLP-1 receptor binding, [125I]GLP-1 displacement, SPA on BHK membranes; conditions: displacement of [125I]GLP-1, membranes with human GLP-1 receptor; read-out: IC50 GLP-1R
Description: Assay (II): GLP-1 and Glucagon Receptor Binding The purpose of this assay is to test the in vitro receptor binding activity of the GLP-1 derivatives of the invention. (a) GLP-1 Receptor Binding The GLP-1 receptor (GLP-1R) binding is a measure of the affinity of a derivative for the human GLP-1 receptor. The GLP-1 receptor binding of each derivatives were determined with competitive binding, displacing [^125I]GLP-1 bound to GLP-1 receptors expressed in cell membranes associated with wheat germ agglutinin (WGA) scintillation proximity assay (SPA) beads. Each derivative was added in a series of concentrations to isolated membranes comprising the human GLP-1 receptor and displacement of the labelled radioligand was monitored. The receptor binding was reported as the concentration at which half of the labelled ligand is displaced from the receptor, the IC^50 value. The following chemicals were used in the assay: MEM w/o phenol red (Gibco 11880-028), Pen/strep (Invitrogen 15140-122), G418 (Invitrogen 10131-027), 1 M Hepes (Gibco 15630), EDTA (Invitrogen 15575-038), PBS (Invitrogen 14190-094), fetal calf serum (Invitrogen 16140-071), EGTA, MgCl2 (Merck 1.05832.1000), Tween 20 (Amresco 0850C335), SPA particles (wheat germ agglutinin (WGA) SPA beads, Perkin Elmer RPNQ0001), [125I]-GLP-1]-(7-36)NH2 (produced in-house), OptiPlate™-96 (Perkin Elmer). Buffer 1 consisted of 20 mM Na-HEPES plus 10 mM EDTA and pH was adjusted to 7.4. Buffer 2 consisted of 20 mM Na-HEPES plus 0.1 mM EDTA and pH was adjusted to 7.4. Assay buffer consisted of 50 mM HEPES supplemented with 5 mM EGTA, 5 mM MgCl2, 0.005% Tween 20 and pH was adjusted to 7.4. A 0.02% albumin stock consisted of HSA dissolved at 0.02% (w/v) in assay buffer. The cells used in this assay (clone FCW467-12A) were BHK cells with BHKTS13 as a parent cell line. The cells express the human GLP-1 receptor. The cells were grown at 5% CO2 in DMEM, 10% fetal calf serum, 1% Pen/Strep (Penicillin/Streptomycin) and 1.0 mg/ml of the selection marker G418. To make a membrane preparation the cells were grown to approximately 80% confluence. The cells were washed twice in phosphate-buffered saline and harvested. The cells were pelleted using a brief centrifugation and the cell pellet was kept on ice. The cell pellet was homogenised with ULTRA-THURRAX dispersing instrument for 20-30 seconds in a suitable amount of buffer 1 (e.g., 10 ml). The homogenate was centrifuged for 15 minutes. The pellet was re-suspended (homogenised) in 10 ml buffer 2 and centrifuged. This step was repeated once more. The resulting pellet was re-suspended in buffer 2 and the protein concentration was determined. The membranes were aliquoted and stored at minus 80° C. • 1. For the receptor binding assay 50 μl of the assay buffer was added to each well of an assay plate. • 2. Test compounds were serially diluted to give the following concentrations: 8×10EE-7 M, 8×10EE-8 M, 8×10EE-9 M, 8×10EE-10 M, 8×10EE-11 M, 8×10EE-12 M and 8×10EE-13 M. Twenty-five μl were added to appropriate wells in the assay plate. • 3. Cell membrane aliquots were thawed and diluted to their working concentration. Fifty μl were added to each well in the assay plate. • 4. WGA SPA beads were suspended in assay buffer at 20 mg/ml. The suspension was diluted to 10 mg/ml in assay buffer just prior to addition to the assay plate. Fifty μl were added to each well in the assay plate. • 5. The incubation was started by adding 25 μl of 480 pM solution of [125I]-GLP-1]-(7-36)NH2 to each well of the assay plate. A 25 μl aliquot was reserved for measuring total counts/well. • 6. The assay plate was incubated for 2 h at 30° C. • 7. The assay plate was centrifuged for 10 min. • 8. The assay plate was read in a Perkin Elmer TopCount NXT instrument. Calculations The data from the TopCount instrument were transferred to GraphPad Prism software. The software averaged the values for the replicates and performed a non-linear regression. IC50 values were calculated by the software and reported in nM. […]

T1 sequence (P43220 24-463): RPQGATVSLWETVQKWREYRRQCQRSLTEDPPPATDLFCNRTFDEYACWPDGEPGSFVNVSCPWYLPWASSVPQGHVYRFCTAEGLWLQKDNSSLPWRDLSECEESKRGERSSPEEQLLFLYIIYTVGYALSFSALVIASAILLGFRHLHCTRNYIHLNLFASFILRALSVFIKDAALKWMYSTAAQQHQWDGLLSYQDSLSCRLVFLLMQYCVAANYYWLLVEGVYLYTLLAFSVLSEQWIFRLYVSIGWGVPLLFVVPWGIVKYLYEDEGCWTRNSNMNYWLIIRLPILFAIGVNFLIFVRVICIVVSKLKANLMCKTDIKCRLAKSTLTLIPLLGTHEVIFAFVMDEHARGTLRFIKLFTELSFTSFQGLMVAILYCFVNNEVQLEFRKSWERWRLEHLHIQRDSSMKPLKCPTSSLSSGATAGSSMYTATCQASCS

SMILES | EC50 (human GLP-1 receptor [1]) | IC50 (human GLP-1 receptor [2])
CC[C@H](C)[C@H](NC(=O)[C@H](Cc1ccccc1)NC(=O)[C@H](CCC(=O)O)NC(=O)[C@H](CCCNC(=N)N)NC(=O)[C@H](C)NC(=O)[C@H](C)NC(=O)[C@H](CCC(N)=O)NC(=O)[C@H](CCC(=O)O)NC(=O)[C@H](CCC(=O)O)NC(=O)[C@H](CC(C)C)NC(=O)[C@H](Cc1ccc(O)cc1)NC(=O)[C@H](CCCCN)NC(=O)[C@H](CO)NC(=O)[C@@H](NC(=O)[C@H](CC(=O)O)NC(=O)[C@H](CO)NC(=O)[C@@H](NC(=O)[C@H](Cc1ccccc1)NC(=O)[C@@H](NC(=O)CNC(=O)[C@H](Cc1c[nH]cn1)NC(=O)C(C)(C)NC(=O)CCc1c[nH]cn1)[C@@H](C)O)[C@@H](C)O)C(C)C)C(=O)N[C@@H](C)C(=O)N[C@@H](Cc1c[nH]c2ccccc12)C(=O)N[C@@H](CC(C)C)C(=O)N[C@@H](CC(C)C)C(=O)N[C@@H](CCCCNC(=O)CNC(=O)[C@H](CO)NC(=O)[C@H](CCC(=O)O)NC(=O)CNC(=O)[C@H](CO)NC(=O)CC[C@H](NC(=O)CC[C@H](NC(=O)CCCCCCCCCCCCCCCCCCC(=O)O)C(=O)O)C(=O)O)C(=O)N[C@H](C(N)=O)[C@@H](C)O [Example 30, N^ε34-[2-[[(2S)-2-[[(2S)-4-carboxy-2-[[2-[[(2S)-2-[[(4S)-4-carboxy-4-[[(4S)-4-carboxy-4-(19-carboxynonadecanoylamino)butanoyl]amino]butanoyl]amino]-3-hydroxypropanoyl]amino]acetyl]amino]butanoyl]amino]-3-hydroxypropanoyl]amino]acetyl]-[Imp7,Aib8,His9,Lys18,Glu22,Arg26,Leu33,Thr35]-GLP-1-(7-35)-peptide amide] (I: Desaminohistidyl-[Aib]HGTFTSDVSKYLEEQAAREFIAWLLKT-NH2 / II: {C20 diacid-γGlu-γGlu}-SGESG; amide I:27-II:C) | 0.005 nM | 0.4 nM
CC[C@H](C)[C@H](NC(=O)[C@H](Cc1ccccc1)NC(=O)[C@H](CCC(=O)O)NC(=O)[C@H](CCCNC(=N)N)NC(=O)[C@H](C)NC(=O)[C@H](C)NC(=O)[C@H](CCC(N)=O)NC(=O)[C@H](CCCNC(=N)N)NC(=O)[C@H](CCC(=O)O)NC(=O)[C@H](CC(C)C)NC(=O)[C@H](Cc1ccc(O)cc1)NC(=O)[C@H](CCCCN)NC(=O)[C@H](CO)NC(=O)[C@H](Cc1ccc(O)cc1)NC(=O)[C@H](CC(=O)O)NC(=O)[C@H](CO)NC(=O)[C@@H](NC(=O)[C@H](Cc1ccccc1)NC(=O)[C@@H](NC(=O)CNC(=O)[C@H](Cc1c[nH]cn1)NC(=O)C1(NC(=O)CCc2c[nH]cn2)CCC1)[C@@H](C)O)[C@@H](C)O)C(=O)N[C@@H](C)C(=O)N[C@@H](Cc1c[nH]c2ccccc12)C(=O)N[C@@H](CC(C)C)C(=O)N[C@@H](CC(C)C)C(=O)N[C@@H](CCCCN)C(=O)N[C@@H](CCCCNC(=O)CC[C@H](NC(=O)COCCOCCNC(=O)CC[C@H](NC(=O)COCCOCCNC(=O)CC[C@H](NC(=O)COCCOCCNC(=O)CC[C@H](NC(=O)CC[C@H](NC(=O)CCCCCCCCCCCCCCCCC(=O)O)C(=O)O)C(=O)O)C(=O)O)C(=O)O)C(=O)O)C(N)=O [Example 23, N^ε35-[(4S)-4-carboxy-4-[[2-[2-[2-[[(4S)-4-carboxy-4-[[2-[2-[2-[[(4S)-4-carboxy-4-[[2-[2-[2-[[(4S)-4-carboxy-4-[[(4S)-4-carboxy-4-(17-carboxyheptadecanoylamino)butanoyl]amino]butanoyl]amino]ethoxy]ethoxy]acetyl]amino]butanoyl]amino]ethoxy]ethoxy]acetyl]amino]butanoyl]amino]ethoxy]ethoxy]acetyl]amino]butanoyl]-[Imp7,Acb8,His9,Tyr16,Lys18,Arg22,Arg26,Leu33,Lys35]-GLP-1-(7-35)-peptide amide] (Desaminohistidyl-[Ac4c]HGTFTSDYSKYLERQAAREFIAWLLKK([γGlu-AEEA-γGlu-AEEA-γGlu-AEEA-γGlu-γGlu-C18 diacid])-NH2) | 0.007 nM | 2.3 nM
